Experimental data reported in US8628771B2, “CA IX-specific inhibitors” (Institute of Virology Slovak Academy of Sciences, priority 2002, dated 2014).
pKi: −log10 of the molar value. Read-outs that look alike come from different tables or passages of the source.

Experiments:
hCA IX = hCA IX (Homo sapiens, UniProt Q16790); assay: CA CO2 hydrase activity assay, tumor-associated isozyme hCA IX
Experimental: An SX.18MV-R Applied Photophysics stopped-flow instrument has been used for assaying the CA CO2 hydration activity assays [44]. […] Inhibitor and enzyme solutions were preincubated together for 10 min at room temperature prior to assay, in order to allow for the formation of the E-I complex.

bCA IV = target: T1, bCA IV (Bos taurus, UniProt Q95323); assay: CA esterase activity assay, isozyme bCA IV; assay type: biochemical, bovine; conditions: Table 3
T1 construct: CA IV was isolated from bovine lung microsomes as described by Maren et al; from tissue; host or cells: bovine lung microsomes
T1 sequence (Q95323 19-284): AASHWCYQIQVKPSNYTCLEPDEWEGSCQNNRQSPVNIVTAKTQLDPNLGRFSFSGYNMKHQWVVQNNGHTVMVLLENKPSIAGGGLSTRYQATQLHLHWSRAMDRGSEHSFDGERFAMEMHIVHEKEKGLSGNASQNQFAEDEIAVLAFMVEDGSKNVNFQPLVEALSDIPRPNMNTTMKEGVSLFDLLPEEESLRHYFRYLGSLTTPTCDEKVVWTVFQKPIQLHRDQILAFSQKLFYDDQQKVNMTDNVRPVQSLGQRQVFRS

hCA II = target: T2, hCA II (Homo sapiens, UniProt P00918); assay: CA esterase activity assay, isozyme hCA II; assay type: biochemical
T2 construct: made in house; host or cells: Escherichia coli BL21 (DE3)

hCA I = target: T3, hCA I (Homo sapiens, UniProt P00915); assay: CA esterase activity assay, isozyme hCA I; assay type: biochemical; conditions: Table 3
T3 construct: made in house; host or cells: Escherichia coli BL21 (DE3)
Experimental: Human CA I and CA II cDNAs were expressed in Escherichia coli strain BL21 (DE3) from the plasmids pACA/hCA I and pACA/hCA II described by Lindskog's group [54].
Non-enzymatic hydrolysis rates were always subtracted from the observed rates. […] Inhibitor and enzyme solutions were preincubated together for 10 min at room temperature prior to assay, in order to allow for the formation of the E-I complex. The inhibition constant KI was determined as described in references [44, 76].

[1] = read-out: KI hCA IX, Table 3, catalytic domain of the human, cloned isozyme, CO2 hydrase assay method
[2] = from bovine lung microsomes, esterase assay method, read-out: KI bCA IV
[3] = Table 3, human (cloned) isozymes, esterase assay method, read-out: KI hCA II
[4] = Tables 1 and 3, read-out: KI against CA II
[5] = human (cloned) isozymes, esterase assay method, read-out: KI hCA I
[6] = KI against CA IX, text discussion of Tables 1-3

T3 sequence (P00915 whole entry): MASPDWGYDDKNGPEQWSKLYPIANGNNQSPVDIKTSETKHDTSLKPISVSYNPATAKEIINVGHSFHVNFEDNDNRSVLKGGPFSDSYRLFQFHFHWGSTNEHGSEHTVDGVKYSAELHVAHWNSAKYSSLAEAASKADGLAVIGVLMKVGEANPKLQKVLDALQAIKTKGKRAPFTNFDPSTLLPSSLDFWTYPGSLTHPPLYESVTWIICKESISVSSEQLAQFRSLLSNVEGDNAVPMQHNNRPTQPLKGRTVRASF

Row | SMILES | pKi (hCA IX) | pKi (hCA IX; [1]) | pKi (bCA IV; [2]) | pKi (hCA II; [3]) | pKi (hCA II; [4]) | pKi (hCA I; [5]) | pKi (hCA IX; [6]) | pKi (hCA I; read-out: KI against CA I) | pKi (bCA IV; read-out: KI against CA IV) | pKi (hCA II; read-out: KI against CA II)
1 | Cc1cc(C)[n+](-c2ccc(S(=O)(=O)Nc3nnc(S(N)(=O)=O)s3)cc2)c(C(C)C)c1 [Compound 72, 1-N-[5-Sulfamoyl-1,3,4-thiadiazol-2-yl-(aminosulfonyl-4-phenyl)]-2-iso-propyl-4,6-dimethylpyridinium perchlorate] | 8.05 to 8.52 | 8.30 | 8.52 | 9.41 | 8.79 to 9.70 | 8.40 | – | – | – | –
2 | Cc1cc(C(C)C)[n+](-c2ccc(S(=O)(=O)Nc3nnc(S(N)(=O)=O)s3)cc2)c(C(C)C)c1 [Compound 73, 1-N-[5-Sulfamoyl-1,3,4-thiadiazol-2-yl-(aminosulfonyl-4-phenyl)]-2,6-di-iso-propyl-4-methylpyridinium perchlorate] | – | 7.80 | 8.33 | 8.81 | 8.79 to 9.70 | 8.15 | 7.46 to 7.92 | 7.92 to 8.15 | – | –
3 | Cc1cc(C(C)(C)C)[n+](-c2ccc(S(=O)(=O)Nc3nnc(S(N)(=O)=O)s3)cc2)c(C(C)(C)C)c1 [Compound 74] | 7.46 to 7.92 | 7.47 | 8.03 | 8.50 | 8.22 to 8.50 | 7.96 | – | 7.92 to 8.15 | 7.99 to 8.28 | –
4 | Cc1cc(-c2ccccc2)cc(C)[n+]1-c1ccc(S(=O)(=O)Nc2nnc(S(N)(=O)=O)s2)cc1 [Compound 75, 1-N-[5-Sulfamoyl-1,3,4-thiadiazol-2-yl-(aminosulfonyl-4-phenyl)]-2,6-dimethyl-4-phenylpyridinium perchlorate] | – | 8.22 | 8.70 | 9.70 | – | – | 8.05 to 8.52 | 8.52 | – | 8.79 to 9.70
5 | CCCc1cc(-c2ccccc2)cc(CCC)[n+]1-c1ccc(S(=O)(=O)Nc2nnc(S(N)(=O)=O)s2)cc1 [Compound 77, 1-N-[5-Sulfamoyl-1,3,4-thiadiazol-2-yl-(aminosulfonyl-4-phenyl)]-2,6-di-n-propyl-4-phenylpyridinium perchlorate] | 7.46 to 7.92 | 7.46 | 8.09 | 8.46 | 8.22 to 8.50 | 8.05 | – | 7.92 to 8.15 | 7.99 to 8.28 | –
6 | CCCCc1cc(-c2ccccc2)cc(CCCC)[n+]1-c1ccc(S(=O)(=O)Nc2nnc(S(N)(=O)=O)s2)cc1 [Compound 78] | – | 7.40 | 7.99 | 8.34 | 8.22 to 8.50 | 8.00 | 7.37 to 7.40 | 7.92 to 8.15 | 7.99 to 8.28 | –
7 | CC(C)c1cc(-c2ccccc2)cc(C(C)C)[n+]1-c1ccc(S(=O)(=O)Nc2nnc(S(N)(=O)=O)s2)cc1 [Compound 79, 1-N-[5-Sulfamoyl-1,3,4-thiadiazol-2-yl-(aminosulfonyl-4-phenyl)]-2,6-di-isopropyl-4-phenylpyridinium perchlorate] | – | 7.52 | 8.39 | 8.79 | 8.79 to 9.70 | 8.30 | 7.46 to 7.92 | – | – | –
8 | Cc1cc(-c2ccccc2)cc(-c2ccccc2)[n+]1-c1ccc(S(=O)(=O)Nc2nnc(S(N)(=O)=O)s2)cc1 [Compound 80, 1-N-[5-Sulfamoyl-1,3,4-thiadiazol-2-yl-(aminosulfonyl-4-phenyl)]-2-methyl-4,6-diphenylpyridinium perchlorate] | 7.46 to 7.92 | 7.62 | 8.52 | 8.92 | 8.79 to 9.70 | 8.40 | – | – | – | –
9 | CCc1cc(-c2ccccc2)cc(-c2ccccc2)[n+]1-c1ccc(S(=O)(=O)Nc2nnc(S(N)(=O)=O)s2)cc1 [Compound 81, 1-N-[5-Sulfamoyl-1,3,4-thiadiazol-2-yl-(aminosulfonyl-4-phenyl)]-2-ethyl-4,6-diphenylpyridinium perchlorate] | – | 7.54 | 8.42 | 8.94 | – | 8.30 | 7.46 to 7.92 | – | – | 8.79 to 9.70
10 | CCCc1cc(-c2ccccc2)cc(-c2ccccc2)[n+]1-c1ccc(S(=O)(=O)Nc2nnc(S(N)(=O)=O)s2)cc1 [Compound 82, 1-N-[5-Sulfamoyl-1,3,4-thiadiazol-2-yl-(aminosulfonyl-4-phenyl)]-2-n-propyl-4,6-diphenylpyridinium perchlorate] | – | 7.40 | 8.22 | 8.41 | 8.22 to 8.50 | 8.10 | – | 7.92 to 8.15 | 7.99 to 8.28 | –
11 | CC(C)c1cc(-c2ccccc2)cc(-c2ccccc2)[n+]1-c1ccc(S(=O)(=O)Nc2nnc(S(N)(=O)=O)s2)cc1 [Compound 83, 1-N-[5-Sulfamoyl-1,3,4-thiadiazol-2-yl-(aminosulfonyl-4-phenyl)]-2-iso-propyl-4,6-diphenylpyridinium perchlorate] | 7.46 to 7.92 | 7.49 | 8.35 | 8.43 | 8.22 to 8.50 | 8.22 | – | – | – | –
12 | CCCCc1cc(-c2ccccc2)cc(-c2ccccc2)[n+]1-c1ccc(S(=O)(=O)Nc2nnc(S(N)(=O)=O)s2)cc1 [Compound 84, 1-N-[5-Sulfamoyl-1,3,4-thiadiazol-2-yl-(aminosulfonyl-4-phenyl)]-2-n-butyl-4,6-diphenylpyridinium perchlorate] | – | 7.35 | 8.08 | 8.31 | 8.22 to 8.50 | 8.10 | – | 7.92 to 8.15 | 7.99 to 8.28 | –
13 | CC(C)(C)c1cc(-c2ccccc2)cc(-c2ccccc2)[n+]1-c1ccc(S(=O)(=O)Nc2nnc(S(N)(=O)=O)s2)cc1 [Compound 85, 1-N-[5-Sulfamoyl-1,3,4-thiadiazol-2-yl-(aminosulfonyl-4-phenyl)]-2-tert-butyl-4,6-diphenylpyridinium perchlorate] | 7.37 to 7.40 | 7.37 | 8.15 | 8.39 | 8.22 to 8.50 | 7.92 | – | 7.92 to 8.15 | 7.99 to 8.28 | –
14 | NS(=O)(=O)c1nnc(NS(=O)(=O)c2ccc(-[n+]3c(-c4ccccc4)cc(-c4ccccc4)cc3-c3ccccc3)cc2)s1 [Compound 87, 1-N-[5-Sulfamoyl-1,3,4-thiadiazol-2-yl-(aminosulfonyl-4-phenyl)]-2,4,6-triphenyl-pyridinium perchlorate] | 7.46 to 7.92 | 7.92 | 8.25 | 8.22 | 8.22 to 8.50 | 8.30 | – | – | 7.99 to 8.28 | –
15 | NS(=O)(=O)c1nnc(NS(=O)(=O)c2ccc(-[n+]3c(-c4ccccc4)cccc3-c3ccccc3)cc2)s1 [Compound 88, 1-N-[5-Sulfamoyl-1,3,4-thiadiazol-2-yl-(aminosulfonyl-4-phenyl)]-2,6-diphenylpyridinium perchlorate] | 7.46 to 7.92 | 7.80 | 8.27 | 8.31 | 8.22 to 8.50 | 8.30 | – | – | 7.99 to 8.28 | –
16 | Cc1c(-c2ccccc2)cc(C)[n+](-c2ccc(S(=O)(=O)Nc3nnc(S(N)(=O)=O)s3)cc2)c1C [Compound 90] | – | 7.82 | 8.28 | 8.91 | – | 8.52 | 7.46 to 7.92 | – | 7.99 to 8.28 | –
